Test results published in patent publication US11173156B2, “Solid forms of a kynurenine-3-monooxygenase inhibitor” (CHDI Foundation, Inc., priority 2019, dated 2021).

Experiments:
Format in all cases: physicochemical
[1] = Approximate aqueous solubility of salts/co-crystals (visual, solvent addition method); details: water; for solubility: estimated visually, solvent addition method
Experimental: (§1) A weighed sample was treated with aliquots of the test solvent at room temperature. The mixture was sonicated between additions to facilitate dissolution. Complete dissolution of the test material was determined by visual inspection. Solubility was estimated based on the total solvent used to provide complete dissolution. Some samples were then heated and observed visually for complete dissolution. The actual solubility may be greater than the value calculated because of the use of solvent aliquots that were too large or due to a slow rate of dissolution. […] If complete dissolution was achieved as a result of only one aliquot addition, the solubility is expressed as “greater than.”

[2] = Deliquescence of salts/co-crystals during exposure to 75% RH; details: ambient temperature, 3 day exposure; for Observation (deliquescence): visual
Experimental: The salts identified from the salt/co-crystal screen of Compound I (see section 4 above) were assessed visually for deliquescence during exposure to 75% RH at ambient temperature (Table 5). […] The materials from these experiments were recovered and re-analyzed by XRPD to determine if changes in solid form occurred.

[3] = XRPD analysis of remaining solids from aqueous solubility assessments; details: solids recovered from mother liquor of aqueous solubility assessment
Source text: Compound I ethylenediamine A+B disproportionated, as peaks similar to those observed for Compound I free acid Material C were observed.

[4] = Dynamic vapor sorption/desorption (DVS); details: for material recovered from the DVS analysis compared with starting material by XRPD: after DVS; for DVS weight loss: from about 95% to about 5% RH
Experimental: Moisture sorption/desorption data were collected on a VTI SGA-100 Vapor Sorption Analyzer. NaCl and PVP were used as calibration standards. Samples were not dried prior to analysis. Sorption and desorption data were collected over a range from 5% to 95% RH at 10% RH increments under a nitrogen purge. The equilibrium criterion used for analysis was less than 0.0100% weight change in 5 minutes with a maximum equilibration time of 3 hours. Data were not corrected for the initial moisture content of the samples.

[5] = Slurry experiments (form stability); details: for XRPD: room temp.; for relative stability of the form (in words): at the conditions evaluated
Experimental: Solutions were prepared by adding enough solids to a given solvent so that excess solids were present. The mixture was then agitated in a sealed vial at either ambient or an elevated temperature. After a given amount of time, the solids were isolated for analysis.
The formation and stability of solid forms of the sodium salt of Compound I was further evaluated via slurry experiments. The slurries were formed by combining Compound I sodium Pattern A and a solvent, and allowing the slurry to equilibrate at room temperature. If a free flowing slurry was not achieved, an additional amount of the respective solvent was added before the room temperature equilibration step. All slurries were isolated via centrifuge filtration after five days and twelve days of equilibration. The solids were analyzed by XRPD to check for pattern conversion (Table 13).

[6] = Solubility of Compound I sodium salt forms in solvents and binary solvent systems; details: thermodynamic from solid, 60° C., read-out: Solubility
Experimental: as §1

[7] = Stability at elevated temperatures (XRPD, HPLC); details: for chemical and physical form changes after storing at elevated temperature: about 60° C.; for HPLC: after storage at 60 ° C. (time point not given)
Experimental: The stability of Compound I sodium Patterns A, C, and D and Form B, at about 60° C. was evaluated. These forms were weighed into vials covered with a Kimwipe tissue and stored in an oven at 60° C. and ambient pressure. After three days and ten days of exposure, the solids were analyzed by XRPD to check for form conversion. […].

[8] = acetone and/or isopropanol (trituration, single form or competitive slurry)
[9] = solvent systems with high water activity

For `O=C(O)c1cc(-c2ccc(OC3CC3)c(Cl)c2)ncn1` (racemic) [Compound I arginine Material A, 6-(3-chloro-4-cyclopropoxyphenyl)pyrimidine-4-carboxylic acid], the “aqueous solubility (in words)” value ([1]; listed as Compound I Arginine Material A) was “suitable aqueous solubility”.
With `O=C(O)c1cc(-c2ccc(OC3CC3)c(Cl)c2)ncn1` (racemic) [Compound I lysine Material A, 6-(3-chloro-4-cyclopropoxyphenyl)pyrimidine-4-carboxylic acid] the solubility ([1]; thermodynamic from solid, read-out: Solubility) was less than 4000 µg/mL, the “aqueous solubility (in words)” value ([1]; listed as Compound I lysine material A) was “poor low aqueous solubility” and the “Observation (deliquescence)” value [2] was “no deliquescence”.
In the case of `O=C(O)c1cc(-c2ccc(OC3CC3)c(Cl)c2)ncn1` [Compound I benzathine Form A, 6-(3-chloro-4-cyclopropoxyphenyl)pyrimidine-4-carboxylic acid], the “aqueous solubility (in words)” value [1] is reported as “poor low aqueous solubility”, the solubility ([1]; listed as Benzathine A) is reported as less than 7000 µg/mL and the “Result (XRPD of remaining solids)” value [3] is reported as “remained unchanged by XRPD”. For the same compound, the “Result (XRPD of remaining solids)” value ([3]; listed as Benzathine A) was “Benzathine A”, the “Result (XRPD after exposure)” value ([2]; listed as Benzathine A) was “Benzathine A” and the “Observation (deliquescence)” value [2] was “no deliquescence”.
For `O=C(O)c1cc(-c2ccc(OC3CC3)c(Cl)c2)ncn1` [Compound I diethanolamine Form A, 6-(3-chloro-4-cyclopropoxyphenyl)pyrimidine-4-carboxylic acid], the “aqueous solubility (in words)” value [1] was “desirable aqueous solubility”, the solubility [1] was “above 260 mg/mL” and the “hygroscopicity by DVS analysis (in words)” value (“hygroscopicity” for short) [4] was “not hygroscopic”. For the same compound, the “DVS weight loss upon equilibration at about 5% RH” value [4] was “about 0.2%”, the “material recovered from the DVS analysis compared with starting material by XRPD” value [4] was “substantially the same as the starting material” and the DVS weight gain ([4]; from about 5 to about 95% RH) was roughly 0.48%. For the same compound, the DVS weight loss [4] was roughly 0.47% and the “Observation (deliquescence)” value [2] was “no deliquescence”.
With `O=C(O)c1cc(-c2ccc(OC3CC3)c(Cl)c2)ncn1` [Compound I diethylamine Material A, 6-(3-chloro-4-cyclopropoxyphenyl)pyrimidine-4-carboxylic acid] the “aqueous solubility (in words)” value [1] was “desirable aqueous solubility”, the solubility [1] was roughly 30000 µg/mL and the solubility ([1]; listed as Diethylamine A) was greater than 30000 µg/mL. The “hygroscopicity” value [4] was “hygroscopic”, the “DVS weight loss upon equilibration at about 5% RH” value [4] was “about 0.08%” and the “material recovered from the DVS analysis compared with starting material by XRPD” value [4] was “substantially the same as the starting material”. For the same compound, the DVS weight gain ([4]; from about 5 to about 95% RH) was roughly 2.12%, the DVS weight loss [4] was roughly 1.92% and the “gain observed by DVS analysis” value ([4]; sorption cycle) was roughly 2 wt %. The “Observation (deliquescence)” value [2] was “no deliquescence”.
For `O=C(O)c1cc(-c2ccc(OC3CC3)c(Cl)c2)ncn1` [Compound I ethanolamine Material A, 6-(3-chloro-4-cyclopropoxyphenyl)pyrimidine-4-carboxylic acid], the “aqueous solubility (in words)” value [1] was “poor low aqueous solubility”, the solubility ([1]; listed as Ethanolamine A) was less than 4000 µg/mL and the “Observation (deliquescence)” value [2] was “no deliquescence”.
With `O=C(O)c1cc(-c2ccc(OC3CC3)c(Cl)c2)ncn1` [Compound I meglumine Material A, 6-(3-chloro-4-cyclopropoxyphenyl)pyrimidine-4-carboxylic acid] the “aqueous solubility (in words)” value [1] was “suitable aqueous solubility”.
In the case of `O=C(O)c1cc(-c2ccc(OC3CC3)c(Cl)c2)ncn1` [Compound I sodium Pattern A, 6-(3-chloro-4-cyclopropoxyphenyl)pyrimidine-4-carboxylic acid], the XRPD ([5]; ACN slurry, 12 days, dry) is reported as “Amorphous”, the XRPD ([5]; ACN slurry, 12 days, wet) is reported as “Amorphous” and the XRPD ([5]; DCM slurry, 12 days, dry) is reported as “Low”. The XRPD ([5]; DCM slurry, 12 days, wet) was “Low”, the XRPD ([5]; EtOAc slurry, 5 days) was “Amorphous” and the XRPD ([5]; EtOH slurry, 5 days) was “Amorphous”. The XRPD ([5]; THF slurry, 5 days) was “Amorphous”, the XRPD ([5]; THF slurry, 12 days, dry) was “Amorphous” and the XRPD ([5]; THF slurry, 12 days, wet) was “Amorphous”. The “form conversion in slurry / trituration” value [5, 8] was “converted to Compound I sodium Form B”, the “relative stability of the form (in words)” value [5] was “metastable relative to Compound I sodium Form B” and the “form conversion in slurry / trituration” value [5, 9] was “rehydrated to Compound I Form E”. For the same compound, the “stability in slurry (in words)” value ([5]; water, toluene, DCM and MEK) was “stable as a single form for about five days”, the solubility ([6]; organic solvent or mixture, 2-MeTHF) was less than 1100 µg/mL and the solubility ([6]; organic solvent or mixture, ACN) was less than 1200 µg/mL. The solubility ([6]; organic solvent or mixture, Acetone) was less than 1300 µg/mL, the solubility ([6]; organic solvent or mixture, BuOH) was less than 1200 µg/mL and the solubility ([6]; organic solvent or mixture, DCM) was less than 1300 µg/mL. For the same compound, the solubility ([6]; organic solvent or mixture, DMF) was 5800 to 7700 µg/mL, the solubility ([6]; organic solvent or mixture, DMSO) was 7500 to 11300 µg/mL and the solubility ([6]; organic solvent or mixture, EtOAc) was less than 1100 µg/mL. It also gave a solubility ([6]; organic solvent or mixture, EtOH) of less than 1300 µg/mL, a solubility ([6]; organic solvent or mixture, Heptane) of less than 1200 µg/mL and a solubility ([6]; organic solvent or mixture, IPA) of less than 1100 µg/mL. It also gave a solubility ([6]; organic solvent or mixture, IPAc) of less than 1100 µg/mL, a solubility ([6]; organic solvent or mixture, MEK) of less than 1300 µg/mL and a solubility ([6]; organic solvent or mixture, MIBK) of less than 1200 µg/mL. For the same compound, the solubility ([6]; organic solvent or mixture, MTBE) was less than 1100 µg/mL, the solubility ([6]; organic solvent or mixture, MeOH) was 5000 to 6700 µg/mL and the solubility ([6]; organic solvent or mixture, NMP) was 10300 to 20500 µg/mL. The solubility ([6]; organic solvent or mixture, THF) was less than 1300 µg/mL, the solubility ([6]; organic solvent or mixture, Toluene) was less than 1100 µg/mL and the solubility ([6]; organic solvent or mixture, c-Hexane) was less than 1200 µg/mL. For the same compound, the solubility ([6]; Water) was 10000 to 20000 µg/mL, the “chemical and physical form changes after storing at elevated temperature” value [7] was “No chemical and physical form changes were observed” and the HPLC [7] was greater than 99.9 % AUC. For the same compound, the “hygroscopicity” value [4] was “hygroscopic”, the “deliquescence (in words)” value ([4]; DVS analysis) was “did not show any indications of deliquescence” and the “material recovered from the DVS analysis compared with starting material by XRPD” value [4] was “substantially the same as the starting material”. The DVS weight gain ([4]; at 60% RH) was “about 4.9%” and the DVS weight gain ([4]; at 90% RH) was “about 21.2%”.
With `O=C(O)c1cc(-c2ccc(OC3CC3)c(Cl)c2)ncn1` [Compound I sodium Pattern C, 6-(3-chloro-4-cyclopropoxyphenyl)pyrimidine-4-carboxylic acid] the “form conversion in slurry / trituration” value [5, 8] was “converted to Compound I sodium Form B”, the “relative stability of the form (in words)” value [5] was “not stable” and the “time stable in slurry” value ([5]; methanol) was “about 10 days”. For the same compound, the “form conversion in slurry / trituration” value [5, 9] was “covert to Compound I sodium Form E”, the “chemical and physical form changes after storing at elevated temperature” value [7] was “No chemical and physical form changes were observed” and the HPLC [7] was greater than 99.9 % AUC. The “hygroscopicity” value [4] was “slightly hygroscopic”, the “material recovered from the DVS analysis compared with starting material by XRPD” value [4] was “substantially the same as the starting material” and the DVS weight gain ([4]; at 60% RH) was “about 1.9%”. For the same compound, the DVS weight gain ([4]; at 90% RH) was “about 8.4%”.
With `O=C(O)c1cc(-c2ccc(OC3CC3)c(Cl)c2)ncn1` [Compound I tromethamine Form A, 6-(3-chloro-4-cyclopropoxyphenyl)pyrimidine-4-carboxylic acid] the “aqueous solubility (in words)” value [1] was “desirable aqueous solubility”, the solubility [1] was roughly 134000 µg/mL and the solubility ([1]; listed as Tromethamine A) was greater than 134000 µg/mL. The “hygroscopicity” value [4] was “not hygroscopic”, the “DVS weight loss upon equilibration at about 5% RH” value [4] was “about 0.01%” and the “material recovered from the DVS analysis compared with starting material by XRPD” value [4] was “substantially the same as the starting material”. The DVS weight gain ([4]; from about 5 to about 95% RH) was roughly 0.25%, the DVS weight loss [4] was roughly 0.26% and the “Observation (deliquescence)” value [2] was “no deliquescence”.
